# Data as given in publication PMC6499206, “Quantification of Volatile Metabolites Derived From Garlic (Allium sativum) in Human Urine” (Frontiers in Nutrition, 2019).
# Assay: Quantification of garlic-derived metabolites in human urine after ingestion of 3 g raw garlic (SIDA, SAFE, HRGC-MS / HRGC-GC-MS)
# Assay type: in vivo
# Parameters: metabolite in urine related to creatinine: unit not given here
# Details: for highest detected concentration of the sample series: same bulb
# Description: Human urine samples were obtained from 18 volunteers (age 22–38 years, mean 27 years; 11 females, 7 males); thereby, one volunteer conducted the whole experimental series twice. At the time of examination, volunteers reported no known illness that might have potentially influenced the metabolism or the excretion of urine. The test persons were instructed to avoid foods that were rich in sulfur-containing substances at the testing day as well as 2 days preceding the testing day, namely garlic, onion, wild garlic, chives, cabbage, and leek, and were only allowed to consume the garlic sample provided in the course of the experiments. Additionally, subjects were asked to keep records of the food (including food supplements) and beverages they consumed during these 3 testing days. Generally, the overall panelists' requirements were in accordance with our previous studies ([5], [16]).
# On the sampling day, the outer garlic cloves of a whole garlic bulb were peeled and cut into ~3 mm cubes by using a garlic cutter (Genius GmbH, Limburg/Lahn, Germany). Subsequently these cubes were thoroughly mixed and aliquoted into 3 g portions. Three to four test persons conducted the experiment at the same day. Each test person was asked to ingest a garlic portion of 3 g. In total, eight consecutive urine samples were provided by each test person, comprising one whole urine set. The samples were collected in sterile brown glass bottles, with sampling times as follows: one sample was provided directly prior to garlic consumption. The series of the second to eighth sample was then obtained at about 0.5, 1, 2, 4, 6, 8, and 24 h after garlic consumption, respectively. Between the first urine sample (prior to garlic consumption) and the seventh urine sample (8 h after garlic consumption) test persons only spent urine at the specific time points mentioned before. Another sample was provided at the next morning (24 h after garlic consumption). Between the samples provided 8 and 24 h after garlic consumption no urine was collected. All samples were immediately placed into a −80°C freezer and were kept frozen until further analysis.
# The samples of each set were termed according to their sampling time. The following list provides the time intervals that are related to the respective sample name: • - pre: before garlic consumption • - 0.5 h post: 0.4–0.8 h after garlic consumption • - 1 h post: 0.9–1.3 h after garlic consumption • - 2 h post: 1.8 h−2.2 h after garlic consumption • - 4 h post: 3.8–4.4 h after garlic consumption • - 6 h post: 5.8–6.4 h after garlic consumption • - 8 h post: 7.8–8.4 h after garlic consumption • - 24 h post: 23.8–25.6 h after garlic consumption
# A creatinine kit (Labor+Technik Eberhard Lehmann GmbH, Berlin, Germany) was used to determine the creatinine content in each urine sample. The determination principle of this kit is based on the reaction of creatinine with picric acid under basic conditions (Jaffé reaction). The formed complex was detected photometrically at a wavelength of 492 nm.
# For quantification purposes, the deuterated standards ^2H3-AMS, ^2H3-AMSO, and ^2H3-AMSO2 were added to the sample and stirred for 10 min. Subsequently, DCM was added in a ratio of 1:2 (DCM/human urine; v/v) and this solution was stirred for further 30 min at room temperature. To isolate the volatile fraction from the urine samples we then applied SAFE-distillation ([17]), thereby distilling the respective samples at 50°C. After completion of the distillation process, 10 mL of DCM were applied in each case to rinse the SAFE apparatus and to ensure complete transition of the volatile compounds. This process was repeated with another 10 mL of DCM. After thawing, the obtained aqueous distillate phase was extracted three times with 25 mL DCM. The organic phases were combined, dried over anhydrous Na2SO4 and concentrated to a total volume of 100 μL by means of Vigreux distillation and subsequent micro-distillation at 50°C. […]
# [1] = U XII, 2 h post (1.85 h), 3 g raw garlic
# [2] = U XII, 4 h post (3.80 h), 3 g raw garlic
# [3] = U XII, 6 h post (5.82 h), 3 g raw garlic
# [4] = U XII, 8 h post (7.82 h), 3 g raw garlic
# [5] = U XII, 24 h post (23.92 h), 3 g raw garlic
# [6] = U XII, pre (-0.08 h), 3 g raw garlic
# [7] = U XIII, 0.5 h post (0.42 h), 3 g raw garlic
# [8] = U XIII, 1 h post (0.92 h), 3 g raw garlic
# [9] = U XIII, 2 h post (1.92 h), 3 g raw garlic
# [10] = U XIII, 4 h post (3.92 h), 3 g raw garlic
# [11] = U XIII, 6 h post (5.92 h), 3 g raw garlic
# [12] = U XIII, 8 h post (7.92 h), 3 g raw garlic
# [13] = U XIII, 24 h post (23.92 h), 3 g raw garlic
# [14] = U XIII, pre (-0.08 h), 3 g raw garlic
smiles,measurement,setting,value
"C=CCS(C)(=O)=O [AMSO2, allyl methyl sulfone]",metabolite concentration in urine,[1],48.2 µg/kg
same,"metabolite concentration in urine, creatinine-normalized",[1],72.4 µg/mmol creatinine
same,metabolite concentration in urine,[2],76.1 µg/kg
same,"metabolite concentration in urine, creatinine-normalized",[2],28.5 µg/mmol creatinine
same,metabolite concentration in urine,[3],82.8 µg/kg
same,"metabolite concentration in urine, creatinine-normalized",[3],14.3 µg/mmol creatinine
same,metabolite concentration in urine,[4],61.4 µg/kg
same,"metabolite concentration in urine, creatinine-normalized",[4],21.6 µg/mmol creatinine
same,metabolite concentration in urine,[5],6.6 µg/kg
same,"metabolite concentration in urine, creatinine-normalized",[5],0.4 µg/mmol creatinine
same,metabolite concentration in urine,[6],2.0 µg/kg
same,"metabolite concentration in urine, creatinine-normalized",[6],0.1 µg/mmol creatinine
same,metabolite concentration in urine,[7],19.8 µg/kg
same,"metabolite concentration in urine, creatinine-normalized",[7],12.4 µg/mmol creatinine
same,metabolite concentration in urine,[8],145.0 µg/kg
same,"metabolite concentration in urine, creatinine-normalized",[8],58.5 µg/mmol creatinine
same,metabolite concentration in urine,[9],182.5 µg/kg
same,"metabolite concentration in urine, creatinine-normalized",[9],52.4 µg/mmol creatinine
same,metabolite concentration in urine,[10],174.3 µg/kg
same,"metabolite concentration in urine, creatinine-normalized",[10],36.8 µg/mmol creatinine
same,metabolite concentration in urine,[11],105.0 µg/kg
same,"metabolite concentration in urine, creatinine-normalized",[11],9.0 µg/mmol creatinine
same,metabolite concentration in urine,[12],67.5 µg/kg
same,"metabolite concentration in urine, creatinine-normalized",[12],7.7 µg/mmol creatinine
same,metabolite concentration in urine,[13],8.5 µg/kg
same,"metabolite concentration in urine, creatinine-normalized",[13],1.0 µg/mmol creatinine
same,metabolite concentration in urine,[14],< LOD^3
same,"metabolite concentration in urine, creatinine-normalized",[14],< LOD^3
same,variation factor of the concentration maxima between test persons,"Urine XIII-XVI, highest vs lowest maximum",2.2
same,highest detected concentration of the sample series,"Urine XIII, 3 g raw garlic",58.5 μg/mmol creatinine
same,highest detected concentration of the sample series,"Urine XIV (AMS: printed Urine UIV), 3 g raw garlic",60.1 μg/mmol creatinine
same,highest detected concentration of the sample series,"Urine XV, 3 g raw garlic",83.1 μg/mmol creatinine
same,time of highest concentration in urine after garlic consumption,"Urine XVI, 3 g raw garlic",4 h
same,highest detected concentration of the sample series,"Urine XVI, 3 g raw garlic",37.19 μg/mmol creatinine
same,metabolite in urine related to creatinine,"urine set U XIX, 0.5 h post (0.50 h), garlic 3.1133 g",4.4
same,metabolite in urine related to creatinine,"urine set U XIX, 1 h post (1.00 h), garlic 3.1133 g",41.2
same,metabolite in urine related to creatinine,"urine set U XIX, 2 h post (2.00 h), garlic 3.1133 g",77.6
same,metabolite in urine related to creatinine,"urine set U XIX, 4 h post (4.00 h), garlic 3.1133 g",41.4
same,metabolite in urine related to creatinine,"urine set U XIX, 6 h post (6.20 h), garlic 3.1133 g",30.7
same,metabolite in urine related to creatinine,"urine set U XIX, 8 h post (7.93 h), garlic 3.1133 g",24.3
same,metabolite in urine related to creatinine,"urine set U XIX, 24 h post (23.98 h), garlic 3.1133 g",1.8
same,metabolite in urine related to creatinine,"urine set U XIX, pre (-0.07 h), garlic 3.1133 g",< LOD^3
same,metabolite in urine related to creatinine,"urine set U XVII, 0.5 h post (0.58 h), garlic 3.1559 g",0.3
same,metabolite in urine related to creatinine,"urine set U XVII, 1 h post (1.00 h), garlic 3.1559 g",4.7
same,metabolite in urine related to creatinine,"urine set U XVII, 2 h post (2.17 h), garlic 3.1559 g",32.1
same,metabolite in urine related to creatinine,"urine set U XVII, 4 h post (4.00 h), garlic 3.1559 g",27.6
same,metabolite in urine related to creatinine,"urine set U XVII, 6 h post (6.08 h), garlic 3.1559 g",3.0
same,metabolite in urine related to creatinine,"urine set U XVII, 8 h post (8.00 h), garlic 3.1559 g",5.1
same,metabolite in urine related to creatinine,"urine set U XVII, 24 h post (23.92 h), garlic 3.1559 g",0.7
same,metabolite in urine related to creatinine,"urine set U XVII, pre (-0.08 h), garlic 3.1559 g",traces^3
same,metabolite in urine related to creatinine,"urine set U XVIII, 0.5 h post (0.63 h), garlic 3.1981 g",14.7
same,metabolite in urine related to creatinine,"urine set U XVIII, 1 h post (1.05 h), garlic 3.1981 g",40.5
same,metabolite in urine related to creatinine,"urine set U XVIII, 2 h post (2.00 h), garlic 3.1981 g",68.1
same,metabolite in urine related to creatinine,"urine set U XVIII, 4 h post (3.97 h), garlic 3.1981 g",56.4
same,metabolite in urine related to creatinine,"urine set U XVIII, 6 h post (5.97 h), garlic 3.1981 g",26.3
same,metabolite in urine related to creatinine,"urine set U XVIII, 8 h post (8.30 h), garlic 3.1981 g",42.2
same,metabolite in urine related to creatinine,"urine set U XVIII, 24 h post (24.13 h), garlic 3.1981 g",1.3
same,metabolite in urine related to creatinine,"urine set U XVIII, pre (-0.08 h), garlic 3.1981 g",< LOD^3
